Emax and IC50 data for 28 compounds are collected here from patent US11524938B2, “Aromatic sulfonamide derivatives” (Bayer Pharma Aktiengesellschaft, priority 2016, dated 2022).

The assay deals with T1, human P2X4 (Homo sapiens, UniProt Q99571).
T1 sequence (Q99571 1-388): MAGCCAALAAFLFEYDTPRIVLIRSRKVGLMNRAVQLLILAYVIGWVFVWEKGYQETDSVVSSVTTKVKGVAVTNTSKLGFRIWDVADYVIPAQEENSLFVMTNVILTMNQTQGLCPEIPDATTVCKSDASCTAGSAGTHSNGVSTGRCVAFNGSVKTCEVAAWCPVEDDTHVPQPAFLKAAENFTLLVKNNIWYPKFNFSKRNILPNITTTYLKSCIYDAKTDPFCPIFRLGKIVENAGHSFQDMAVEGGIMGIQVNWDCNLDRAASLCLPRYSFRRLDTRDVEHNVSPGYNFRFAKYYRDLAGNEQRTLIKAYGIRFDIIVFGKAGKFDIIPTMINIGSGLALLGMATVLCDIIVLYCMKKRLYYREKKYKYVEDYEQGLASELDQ
The assay is described as follows: Human P2X4 HEK Cell FLIPR Assay. It counts as cell-based. The following applies: agonist Bz-ATP at EC80; for Emax: HEK293, HEK293 cells, percentage of maximal inhibition, read-out: Human P2X4 HEK Cells (FLIPR Assay) avg Efficacy [%]; for IC50: HEK293 cells, individual values listed where some fall outside detection range. Summed up:
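HEK293 cells stably expressing human P2X4, Fluo8-AM loaded 30 min at 37° C, then compound 30 min at room temperature (0.5% DMSO, pH 7.4 buffer with 1.8 mM CaCl2). Bz-ATP at its daily-determined EC80 added; calcium fluorescence read over 120 sec; IC50 from peak RFU normalized to agonist control, triplicates.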

“And” between values parts separate entries of the source, which are not always exact repeats. Identical values can stand only once. Bounds are passed on as bounds.

By IC50 is commonly meant the midpoint of a concentration-inhibition curve. Higher therefore signals weaker potency in that assay. Take `NS(=O)(=O)c1cc(NC(=O)Cc2ccccc2Cl)ccc1-c1cc[nH]c1` [Example 527, 2-(2-Chlorophenyl)-N-[4-(1H-pyrrol-3-yl)-3-sulfamoylphenyl]acetamide]: the Emax is 86% and the half-maximal inhibitory concentration (IC50) is 125 nM.
For `NS(=O)(=O)c1cc(NC(=O)Cc2ccccc2Cl)ccc1-c1c[nH]c(C(=O)C(F)F)c1` [Example 528, 2-(2-Chlorophenyl)-N-{4-[5-(difluoroacetyl)-1H-pyrrol-3-yl]-3-sulfamoylphenyl}acetamide] the same measures were 95% and 42 nM.
As to `Cn1ccc(-c2ccc(NC(=O)Cc3ccccc3Cl)cc2S(N)(=O)=O)c1` [Example 529, 2-(2-Chlorophenyl)-N-[4-(1-methyl-1H-pyrrol-3-yl)-3-sulfamoylphenyl]acetamide], the Emax came to 92% and the IC50 is 72 nM.
Take `Cn1c(C#N)ccc1-c1ccc(NC(=O)Cc2ccccc2Cl)cc1S(N)(=O)=O` [Example 530, 2-(2-Chlorophenyl)-N-[4-(5-cyano-1-methyl-1H-pyrrol-2-yl)-3-sulfamoylphenyl]acetamide]: the Emax worked out at 112% and the IC50 worked out at 33 nM.
For `NS(=O)(=O)c1c(-n2cc(C(F)(F)F)cn2)ccc(NC(=O)Cc2ccccc2Cl)c1C(F)(F)F` [Example 531, 2-(2-Chlorophenyl)-N-{3-sulfamoyl-2-(trifluoromethyl)-4-[4-(trifluoromethyl)-1H-pyrazol-1-yl]phenyl}acetamide] the same measures were 84% and 2320 nM.
For `NS(=O)(=O)c1cc(NC(=O)Cc2ccccc2Cl)c(C(F)(F)F)cc1-n1cc(C(F)(F)F)cn1` [Example 532, 2-(2-Chlorophenyl)-N-{5-sulfamoyl-2-(trifluoromethyl)-4-[4-(trifluoromethyl)-1H-pyrazol-1-yl]phenyl}acetamide], the Emax came to 60%; the IC50 is 11500 nM and 12900 nM and 17000 nM.
On to `NS(=O)(=O)c1cc(NC(=O)Cc2cccc(C(F)(F)F)c2Cl)c(C(F)(F)F)cc1-n1cc(C(F)(F)F)cn1` [Example 533, 2-[2-Chloro-3-(trifluoromethyl)phenyl]-N-{5-sulfamoyl-2-(trifluoromethyl)-4-[4-(trifluoromethyl)-1H-pyrazol-1-yl]phenyl}acetamide], for which the Emax was found to be 26% and the IC50 is over 25000 nM.
As to `NS(=O)(=O)c1cc(NC(=O)Cc2cc(C(F)(F)F)ccc2Cl)c(C(F)(F)F)cc1-n1cc(C(F)(F)F)cn1` [Example 534, 2-[2-Chloro-5-(trifluoromethyl)phenyl]-N-{5-sulfamoyl-2-(trifluoromethyl)-4-[4-(trifluoromethyl)-1H-pyrazol-1-yl]phenyl}acetamide], the Emax amounted to 17% and the IC50 was over 25000 nM.
As for `NS(=O)(=O)c1cc(NC(=O)Cc2c(Cl)cccc2C(F)(F)F)c(C(F)(F)F)cc1-n1cc(F)cn1` [Example 535, 2-[2-Chloro-6-(trifluoromethyl)phenyl]-N-[4-(4-fluoro-1H-pyrazol-1-yl)-5-sulfamoyl-2-(trifluoromethyl)phenyl]acetamide], the Emax was 91% and the concentration for half-maximal inhibition (IC50) is 3840 nM.
As for `NS(=O)(=O)c1cc(NC(=O)Cc2cccc(C(F)(F)F)c2Cl)c(C(F)(F)F)cc1-n1cc(F)cn1` [Example 536, 2-[2-Chloro-3-(trifluoromethyl)phenyl]-N-[4-(4-fluoro-1H-pyrazol-1-yl)-5-sulfamoyl-2-(trifluoromethyl)phenyl]acetamide], the Emax is 67%; the IC50 was 12400 nM and 16800 nM.
As to `NS(=O)(=O)c1cc(NC(=O)Cc2cc(C(F)(F)F)ccc2Cl)c(C(F)(F)F)cc1-n1cc(F)cn1` [Example 537, 2-[2-Chloro-5-(trifluoromethyl)phenyl]-N-[4-(4-fluoro-1H-pyrazol-1-yl)-5-sulfamoyl-2-(trifluoromethyl)phenyl]acetamide], the Emax was determined as 95% and the IC50 is 3620 nM.
As for `NS(=O)(=O)c1cc(NC(=O)Cc2ccc(C(F)(F)F)cc2Cl)c(C(F)(F)F)cc1-n1cc(F)cn1` [Example 538, 2-[2-Chloro-4-(trifluoromethyl)phenyl]-N-[4-(4-fluoro-1H-pyrazol-1-yl)-5-sulfamoyl-2-(trifluoromethyl)phenyl]acetamide], the Emax came to 83% and the IC50 came out at 3910 nM.
On to `CC(C)(C)c1nn(-c2ccc(NC(=O)Cc3ccccc3Cl)cc2S(N)(=O)=O)cc1C#N` [Example 539, N-[4-(3-tert-Butyl-4-cyano-1H-pyrazol-1-yl)-3-sulfamoylphenyl]-2-(2-chlorophenyl)acetamide], for which the Emax is 103% and the IC50 amounted to 127 nM.
For `N#Cc1cn(-c2ccc(NC(=O)Cc3ccccc3Cl)cc2S(N)(=O)=O)nc1Br` [Example 540, N-[4-(3-Bromo-4-cyano-1H-pyrazol-1-yl)-3-sulfamoylphenyl]-2-(2-chlorophenyl)acetamide], the Emax is 79% and the IC50 amounted to 1 nM.
As for `NS(=O)(=O)c1cc(NC(=O)Cc2ccccc2Cl)ccc1-n1cc(Cl)c(C(F)(F)F)n1` [Example 541, 2-(2-Chlorophenyl)-N-{4-[4-chloro-3-(trifluoromethyl)-1H-pyrazol-1-yl]-3-sulfamoylphenyl}acetamide], the Emax was found to be 50% and the IC50 was over 25000 nM.
For `Cc1cn(-c2ccc(NC(=O)Cc3ccccc3Cl)cc2S(N)(=O)=O)nc1C` [Example 542, 2-(2-Chlorophenyl)-N-[4-(3,4-dimethyl-1H-pyrazol-1-yl)-3-sulfamoylphenyl]acetamide] the same measures were 97% and 20 nM.
Turning to `Cc1nn(-c2ccc(NC(=O)Cc3ccccc3Cl)cc2S(N)(=O)=O)c(C)c1Cl` [Example 543, N-[4-(4-Chloro-3,5-dimethyl-1H-pyrazol-1-yl)-3-sulfamoylphenyl]-2-(2-chlorophenyl)acetamide], the Emax came out at 98% and the IC50 was 267 nM.
As for `NS(=O)(=O)c1cc(NC(=O)Cc2ccccc2Cl)ccc1-n1cccn1` [Example 544, 2-(2-Chlorophenyl)-N-[4-(1H-pyrazol-1-yl)-3-sulfamoylphenyl]acetamide], the Emax was found to be 85% and the IC50 amounted to 1 nM.
On to `Cc1cc(C#N)nn1-c1ccc(NC(=O)Cc2ccccc2Cl)cc1S(N)(=O)=O` [Example 545, 2-(2-Chlorophenyl)-N-[4-(3-cyano-5-methyl-1H-pyrazol-1-yl)-3-sulfamoylphenyl]acetamide], for which the Emax came to 100% and the IC50 came out at 19 nM.
Take `Cc1cc(O)nn1-c1ccc(NC(=O)Cc2ccccc2Cl)cc1S(N)(=O)=O` [Example 546, 2-(2-Chlorophenyl)-N-[4-(3-hydroxy-5-methyl-1H-pyrazol-1-yl)-3-sulfamoylphenyl]acetamide]: the Emax is 75% and the IC50 stood at 97 nM.
For `Cc1c(C#N)cnn1-c1ccc(NC(=O)Cc2ccccc2Cl)cc1S(N)(=O)=O` [Example 547, 2-(2-Chlorophenyl)-N-[4-(4-cyano-5-methyl-1H-pyrazol-1-yl)-3-sulfamoylphenyl]acetamide] the same measures were 94% and 60 nM.
Take `Cc1nn(-c2ccc(NC(=O)Cc3ccccc3Cl)cc2S(N)(=O)=O)cc1C#N` [Example 548, 2-(2-Chlorophenyl)-N-[4-(4-cyano-3-methyl-1H-pyrazol-1-yl)-3-sulfamoylphenyl]acetamide]: the Emax turned out to be 94% and the half-inhibitory concentration (IC50) turned out to be 5 nM.
`NS(=O)(=O)c1cc(NC(=O)Cc2ccccc2Cl)ccc1-c1nc(N2CCOCC2)cs1` [Example 549, 2-(2-Chlorophenyl)-N-{4-[4-(morpholin-4-yl)-1,3-thiazol-2-yl]-3-sulfamoylphenyl}acetamide]: the Emax was found to be 85% and the half-maximal inhibitory concentration (IC50) came out at 8 nM.
Take `NS(=O)(=O)c1cc(NC(=O)Cc2ccccc2Cl)ccc1-c1ncc(N2CCOCC2)s1` [Example 550, 2-(2-Chlorophenyl)-N-{4-[5-(morpholin-4-yl)-1,3-thiazol-2-yl]-3-sulfamoylphenyl}acetamide]: the Emax is 87% and the IC50 stood at 1 nM.
In the same order, the values of `NS(=O)(=O)c1cc(NC(=O)Cc2ccccc2Cl)ccc1-c1ccncc1` [Example 552, 2-(2-Chlorophenyl)-N-[4-(pyridin-4-yl)-3-sulfamoylphenyl]acetamide] are 88% and 1 nM.
Consider `NC(=O)c1cnn(-c2ccc(NC(=O)Cc3ccccc3Cl)cc2S(N)(=O)=O)c1` [Example 553, 1-(4-{[(2-Chlorophenyl)acetyl]amino}-2-sulfamoylphenyl)-1H-pyrazole-4-carboxamide], for which the Emax worked out at 82% and the IC50 was 5 nM.
In the same order, the values of `N#Cc1cnn(-c2ccc(NC(=O)Cc3cccc(O)c3Cl)cc2S(N)(=O)=O)c1` [Example 554, 2-(2-Chloro-3-hydroxyphenyl)-N-[4-(4-cyano-1H-pyrazol-1-yl)-3-sulfamoylphenyl]acetamide] are 83% and 383 nM.
Consider `N#Cc1cnn(-c2ccc(NC(=O)Cc3ccc(O)cc3Cl)cc2S(N)(=O)=O)c1` [Example 555, 2-(2-Chloro-4-hydroxyphenyl)-N-[4-(4-cyano-1H-pyrazol-1-yl)-3-sulfamoylphenyl]acetamide], for which the Emax amounted to 94% and the IC50 came out at 22 nM.
